Positions count from the first letter of the chain named.
Key:
Experiment in all cases: HEK assay: α-Gal A activity in HEK-293 cell lysate with migalastat
Type in all cases: cell-based
[1] = biological target: T1, α-Gal A mutant form p.Gly85Asp (c.254 G > A) (Homo sapiens, UniProt P06280, G85D)
T1 construct: expressed in transfected cells; host or cells: HEK-293
T1 sequence (P06280 32-429 G85D): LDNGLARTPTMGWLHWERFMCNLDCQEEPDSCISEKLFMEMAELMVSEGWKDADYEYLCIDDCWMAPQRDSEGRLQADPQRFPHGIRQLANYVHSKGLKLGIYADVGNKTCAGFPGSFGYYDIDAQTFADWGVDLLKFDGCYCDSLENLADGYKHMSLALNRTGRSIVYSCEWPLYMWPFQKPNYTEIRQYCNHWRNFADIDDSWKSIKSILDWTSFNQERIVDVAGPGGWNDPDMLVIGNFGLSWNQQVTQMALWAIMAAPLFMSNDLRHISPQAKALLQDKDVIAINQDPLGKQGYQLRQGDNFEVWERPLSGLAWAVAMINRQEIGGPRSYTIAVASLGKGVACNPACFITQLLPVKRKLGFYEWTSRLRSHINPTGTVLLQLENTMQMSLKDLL
How it was run: (§1)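 Each disease-causing α-Gal A variant, expressed transiently in HEK-293 cells, was treated plus or minus migalastat from 17 nM up to 1 mM during 4 to 5 days; lysates were assayed for α-Gal A using 4-MU-α-Gal fluorescence or western blotting.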

[2] = biological target: T2, α-Gal A mutant form p.Gly325Arg (c.973G > C) (Homo sapiens, UniProt P06280, G325R)
T2 construct: expressed in transfected cells; host or cells: HEK-293
T2 sequence (P06280 32-429 G325R): T1 sequence (P06280 32-429 G85D) with D54G, G294R
How it was run: as §1

[3] = biological target: T3, α-Gal A mutant form p.Ala156Thr (c.466 G > A) (Homo sapiens, UniProt P06280, A156T)
T3 construct: expressed in transfected cells; host or cells: HEK-293
T3 sequence (P06280 32-429 A156T): T1 sequence (P06280 32-429 G85D) with D54G, A125T
How it was run: as §1

[4] = biological target: T4, α-Gal A mutant form p.Arg356Trp (c.1066 C > T) (Homo sapiens, UniProt P06280, R356W)
T4 construct: expressed in transfected cells; host or cells: HEK-293
T4 sequence (P06280 32-429 R356W): T1 sequence (P06280 32-429 G85D) with D54G, R325W
How it was run: as §1

[5] = biological target: T5, α-Gal A mutant form p.Pro205Thr (c.613 C > A) (Homo sapiens, UniProt P06280, P205T)
T5 construct: expressed in transfected cells; host or cells: HEK-293
T5 sequence (P06280 32-429 P205T): T1 sequence (P06280 32-429 G85D) with D54G, P174T
How it was run: as §1

[6] = +10 μM migalastat, HEK-293 cell lysate, mean ± SEM, n = 20
[7] = HEK293, 10 μM migalastat minus baseline, read-out: Absolute increase at 10 μM (% WT)

OC[C@H]1NC[C@H](O)[C@@H](O)[C@H]1O [migalastat]
α-Gal A activity at 10 μM (fold over baseline) ([1]; 10 μM migalastat): 5.10 fold over baseline
+Migalastat α-Gal A activity [1, 6]: 4534 ± 135 nmol/mg/h
+Migalastat α-Gal A activity % WT [1, 6]: 14.3 ± 0.9 % WT
activation at 10 µM [1, 7]: 11.6%
α-Gal A activity at 10 μM (fold over baseline) ([2]; 10 μM migalastat): 10.17 fold over baseline
+Migalastat α-Gal A activity [2, 6]: 9244 ± 417 nmol/mg/h
+Migalastat α-Gal A activity % WT [2, 6]: 26.6 ± 1.4 % WT
activation at 10 µM [2, 7]: 24%
α-Gal A activity at 10 μM (fold over baseline) ([3]; 10 μM migalastat): 7.75 fold over baseline
+Migalastat α-Gal A activity [3, 6]: 7034 ± 289 nmol/mg/h
+Migalastat α-Gal A activity % WT [3, 6]: 21.9 ± 0.9 % WT
activation at 10 µM [3, 7]: 19.1%
α-Gal A activity at 10 μM (fold over baseline) ([4]; 10 μM migalastat): 4.42 fold over baseline
+Migalastat α-Gal A activity [4, 6]: 15570 ± 830 nmol/mg/h
+Migalastat α-Gal A activity % WT [4, 6]: 49.1 ± 2.6 % WT
activation at 10 µM [4, 7]: 38.1%
α-Gal A activity at 10 μM (fold over baseline) ([5]; 10 μM migalastat): 3.41 fold over baseline
+Migalastat α-Gal A activity [5, 6]: 16371 ± 647 nmol/mg/h
+Migalastat α-Gal A activity % WT [5, 6]: 48.8 ± 2.2 % WT
activation at 10 µM [5, 7]: 34.4%

— patent US20210038579A1, “Treatment Of Patients With Classic Fabry Disease” (Amicus Therapeutics, Inc., priority 2018, published 2021)
